Values joined by “and” are separate entries in the source; they are usually repeats but may differ in a detail not shown here. Identical values can stand only once. ± gives the expanded uncertainty stated by the source.
How the values were obtained:
[1] = for thermal pressure coefficient: barogram technique
[2] = molar heat capacity at constant volume; conditions: High-temperature High-pressure adiabatci calorimeter

Compound: CCOCC [diethyl ether]
- vapor or sublimation pressure ([1]; 416.1 K, Liquid): 1599 ± 48 kPa
- mass density ([1]; 416.1 K, Liquid, Constant volume piezo-calorimeter): 534.6 ± 0.3 kg/m3
- thermal pressure coefficient ([1]; 416.1 K, Liquid): 272 ± 4.1 kPa/K
- vapor or sublimation pressure ([1]; 425.19 K, Liquid): 1906 ± 57 kPa
- mass density ([1]; 425.19 K, Liquid, Constant volume piezo-calorimeter): 517.3 ± 0.3 kg/m3
- thermal pressure coefficient ([1]; 425.19 K, Liquid): 238 ± 3.6 kPa/K
- vapor or sublimation pressure ([1]; 437.14 K, Liquid): 2280 ± 68 kPa
- mass density ([1]; 437.14 K, Liquid, Constant volume piezo-calorimeter): 485.2 ± 0.3 kg/m3
- thermal pressure coefficient ([1]; 437.14 K, Liquid): 198 ± 3 kPa/K
- vapor or sublimation pressure ([1]; 450.6 K, Liquid): 2931 ± 88 kPa
- mass density ([1]; 450.6 K, Liquid, Constant volume piezo-calorimeter): 441.5 ± 0.2 kg/m3
- thermal pressure coefficient ([1]; 450.6 K, Liquid): 148 ± 2.2 kPa/K
- vapor or sublimation pressure ([1]; 450.77 K, Liquid): 2933 ± 88 kPa
- mass density ([1]; 450.77 K, Liquid, Constant volume piezo-calorimeter): 440.8 ± 0.2 kg/m3
- thermal pressure coefficient ([1]; 450.77 K, Liquid): 148 ± 2.2 kPa/K
- vapor or sublimation pressure ([1]; 459.61 K, Liquid): 3315 ± 99 kPa
- mass density ([1]; 459.61 K, Liquid, Constant volume piezo-calorimeter): 394.8 ± 0.2 kg/m3
- thermal pressure coefficient ([1]; 459.61 K, Liquid): 106 ± 1.6 kPa/K
- vapor or sublimation pressure ([1]; 464.79 K, Liquid): 3580 ± 110 kPa
- mass density ([1]; 464.79 K, Liquid, Constant volume piezo-calorimeter): 348.2 ± 0.3 kg/m3
- thermal pressure coefficient ([1]; 464.79 K, Liquid): 81.8 ± 1.2 kPa/K
- thermal pressure coefficient ([1]; 466.12 K, Gas): 52.3 ± 0.8 kPa/K
- mass density ([1]; 466.12 K, Gas, constant volume piezo-calorimeter): 212.6 ± 0.6 kg/m3
- vapor or sublimation pressure ([1]; 466.47 K, Liquid): 3612 ± 110 kPa
- mass density ([1]; 466.47 K, Liquid, Constant volume piezo-calorimeter): 310.8 ± 0.8 kg/m3
- thermal pressure coefficient ([1]; 466.47 K, Liquid): 68 ± 1 kPa/K
- thermal pressure coefficient ([1]; 466.66 K, Gas): 54.3 ± 0.8 kPa/K
- mass density ([1]; 466.66 K, Gas, constant volume piezo-calorimeter): 233.7 ± 0.8 kg/m3
- vapor or sublimation pressure ([1]; 466.75 K, Liquid): 3601 ± 110 kPa
- mass density ([1]; 466.75 K, Liquid, Constant volume piezo-calorimeter): 296.7 ± 0.8 kg/m3
- thermal pressure coefficient ([1]; 466.75 K, Liquid): 64.5 ± 1 kPa/K
- vapor or sublimation pressure ([1]; 466.8 K, Liquid): 3583 ± 110 kPa
- mass density ([1]; 466.8 K, Liquid, Constant volume piezo-calorimeter): 288.3 ± 1.1 kg/m3
- thermal pressure coefficient ([1]; 466.8 K, Liquid): 61 ± 1 kPa/K
- vapor or sublimation pressure ([1]; 466.81 K, Liquid): 3608 ± 110 kPa and 3576 ± 110 kPa
- mass density ([1]; 466.81 K, Liquid, Constant volume piezo-calorimeter): 278.7 ± 1.5 kg/m3 and 275.7 ± 1.6 kg/m3
- thermal pressure coefficient ([1]; 466.81 K, Liquid): 59.7 kPa/K and 59.2 kPa/K
- thermal pressure coefficient ([1]; 466.82 K, Gas): 55.9 ± 0.9 kPa/K
- mass density ([1]; 466.82 K, Gas, constant volume piezo-calorimeter): 255 ± 1.9 kg/m3
- thermal pressure coefficient ([1]; 466.83 K, Gas): 56.1 ± 0.9 kPa/K
- mass density ([1]; 466.83 K, Gas, constant volume piezo-calorimeter): 260.7 ± 2.3 kg/m3
- thermal pressure coefficient ([1]; 466.85 K, Gas): 55.9 ± 0.9 kPa/K
- mass density ([1]; 466.85 K, Gas, constant volume piezo-calorimeter): 261.2 ± 2.2 kg/m3
- Critical density ([1]; Liquid, quasi-satatic thermogram technique): 265.1 ± 2 kg/m3
- Critical temperature ([1]; Liquid, quasi-static thermogram technique): 466.85 ± 0.2 K
- molar heat capacity at constant volume ([2]; 416.1 K, Liquid): 156.77 ± 4.7 J/K/mol
- molar heat capacity at constant volume ([2]; 425.19 K, Liquid): 159.36 ± 4.8 J/K/mol
- molar heat capacity at constant volume ([2]; 437.14 K, Liquid): 163.81 ± 4.9 J/K/mol
- molar heat capacity at constant volume ([2]; 450.6 K, Liquid): 170.26 ± 5.1 J/K/mol
- molar heat capacity at constant volume ([2]; 450.77 K, Liquid): 171.96 ± 5.2 J/K/mol
- molar heat capacity at constant volume ([2]; 459.61 K, Liquid): 178.63 ± 5.3 J/K/mol
- molar heat capacity at constant volume ([2]; 464.79 K, Liquid): 190.49 ± 5.7 J/K/mol
- molar heat capacity at constant volume ([2]; 466.12 K, Gas): 190.12 ± 5.7 J/K/mol
- molar heat capacity at constant volume ([2]; 466.47 K, Liquid): 203.83 ± 6.2 J/K/mol
- molar heat capacity at constant volume ([2]; 466.66 K, Gas): 208.5 ± 6.3 J/K/mol
- molar heat capacity at constant volume ([2]; 466.75 K, Liquid): 210.65 ± 6.3 J/K/mol
- molar heat capacity at constant volume ([2]; 466.8 K, Liquid): 218.66 ± 6.6 J/K/mol
- molar heat capacity at constant volume ([2]; 466.81 K, Liquid): 233.48 ± 7.1 J/K/mol and 245.64 ± 7.6 J/K/mol
- molar heat capacity at constant volume ([2]; 466.82 K, Gas): 234.97 ± 7.4 J/K/mol
- molar heat capacity at constant volume ([2]; 466.83 K, Gas): 248.6 ± 8.2 J/K/mol
- molar heat capacity at constant volume ([2]; 466.85 K, Gas): 264.24 ± 9.1 J/K/mol
